Key:
[1] = test system: Sterol Biosynthesis in L6 Rat Myoblast; assay: Sterol biosynthesis in L6 rat myoblast (14C acetic acid into cholesterol); format: cell-based; details: 3 hours pre-incubation, 3 hours 14C acetic acid labeling
Method: L6 rat myoblast purchased from ATCC(CRL-1458) were grown in T-150 vented culture flasks and seeded on 12-well culture plates at a density of 60,000 cells per well. The cells were grown in DMEM, (Dulbecco's Modified Eagle Medium) (Gibco, #10567-014) containing 10% heat inactivated FBS (Fetal Bovine Serum) (Gibco # 10082-139) for 72 hours until reaching confluence. The cells were pre-incubated in media with compound and 0.2% DMSO (dimethyl sulfoxide) for 3 hours and then labeled by incubating in medium containing compound, 0.2% DMSO and 1 μCi/per mL of ^14C acetic acid for an additional 3 hours. After labeling, the cells were washed once with 1×PBS (Gibco #14190-144) then lysed overnight at 4° C. in buffer containing 10% KOH and 78% (vol.) ethanol.
Lipid ester bonds were hydrolyzed by saponification of the lysates at 60° C. for 2 hours. […] The amount of ^14C cholesterol was quantified by scintillation counting in a Trilux 1450 plate reader (Wallac). The IC50 values were calculated from % inhibitions relative to negative controls vs. compound concentration on Microsoft excel 2000 data analysis wizard using a sigmoid inhibition curve model with formula: y=Bmax(1−(x^n/K^n+x^n))+y2 Where K is the IC50 for the inhibition curve, X is inhibitor concentration, Y is the response being inhibited and Bmax+Y2 is the limiting response as X approaches zero.

[2] = test system: Sterol Biosynthesis in Rat Hepatocytes; assay: Sterol biosynthesis in rat hepatocytes (14C acetic acid into cholesterol); format: cell-based; details: Hepatocyte, 4 hrs pre-incubation, 4 hrs 14C acetic acid labeling, read-out: IC50 in the cell assay (sterol biosynthesis in rat hepatocytes)
Method: Frozen rat hepatocytes purchased from XenoTech (cat# N400572) were seeded on 6-well collagen I coated plates at a density of 10^5 cells/per well. The cells were grown in DMEM, (Dulbecco's Modified Eagle Medium) (Gibco, #11054-020) containing 10% FBS (Fetal Bovine Serum) and 10 mM HEPES, (N-2-hydroxyethyl-piperazine-N^1-2-ethane sulfonic acid) (Gibco # 15630-080) for 24 hrs. The cells were pre-incubated with compounds for 4 hrs and then labeled by incubating in medium containing 1 μCi/per mL of ^14C acetic acid for an additional 4 hrs. After labeling, the cells were washed twice with 5 mM MOPS, (3-[N-morpholino]propane sulfonic acid) solution containing 150 mM NaCl and 1 mM EDTA and collected in the lysis buffer containing 10% KOH and 80% (vol.) ethanol.
In order to separate labeled cholesterol from labeled non-cholesterol lipids, the cells lysates were subject to saponification at 60° C. for 2 hrs. The lysates were then combined with 0.5 volume of H2O and 2 volumes of hexane, followed by 30 minutes of vigorous shaking. After the separation of two phases, the upper-phase solution was collected and combined with 5 volumes of scintillation cocktail. The amount of ^14C cholesterol was quantified by liquid scintillation counting. The IC50 values were calculated with GraphPad software (Prism 3.03).

[3] = target: T1, HMGCoA (3-Hydroxy-3-methylglutaryl CoA) Reductase (Rattus norvegicus, UniProt P51639); assay: HMGCoA reductase assay with rat liver microsomes; format: biochemical; details: 14C-HMGCoA, 45 min at 37° C., read-out: IC50 in the in vitro HMGCoA reductase assay
T1 construct: from tissue; host or cells: liver microsomes of male Sprague-Dawley rats fed cholestyramine
T1 sequence (P51639 1-887): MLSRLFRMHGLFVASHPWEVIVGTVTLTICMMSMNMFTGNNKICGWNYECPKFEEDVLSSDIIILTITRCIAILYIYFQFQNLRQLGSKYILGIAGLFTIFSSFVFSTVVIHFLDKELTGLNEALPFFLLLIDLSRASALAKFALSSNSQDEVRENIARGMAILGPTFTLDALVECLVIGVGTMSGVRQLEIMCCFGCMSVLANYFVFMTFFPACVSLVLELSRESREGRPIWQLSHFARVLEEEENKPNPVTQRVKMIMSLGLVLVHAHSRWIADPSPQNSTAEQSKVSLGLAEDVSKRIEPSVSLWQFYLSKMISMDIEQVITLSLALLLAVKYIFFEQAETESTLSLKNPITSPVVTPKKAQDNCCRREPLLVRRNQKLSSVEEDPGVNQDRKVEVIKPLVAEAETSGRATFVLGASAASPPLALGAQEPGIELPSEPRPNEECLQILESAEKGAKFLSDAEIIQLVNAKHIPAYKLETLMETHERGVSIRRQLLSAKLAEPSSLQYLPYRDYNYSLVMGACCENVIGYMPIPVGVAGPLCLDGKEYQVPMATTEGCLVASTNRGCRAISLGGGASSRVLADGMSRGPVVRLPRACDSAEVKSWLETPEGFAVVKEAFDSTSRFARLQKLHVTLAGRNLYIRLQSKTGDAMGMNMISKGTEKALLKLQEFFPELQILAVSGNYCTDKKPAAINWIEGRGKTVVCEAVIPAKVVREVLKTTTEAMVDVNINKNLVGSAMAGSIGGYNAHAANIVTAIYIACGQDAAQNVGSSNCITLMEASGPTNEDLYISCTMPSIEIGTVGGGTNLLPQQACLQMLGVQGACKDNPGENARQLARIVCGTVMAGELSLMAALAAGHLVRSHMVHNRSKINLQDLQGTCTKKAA
Method: Male Charles River Sprague-Dawley rats were fed with 2.5% cholestyramine in rat chow diets for 5 days before sacrificing. Livers were minced and homogenized in a sucrose homogenizing solution in an ice bath 10 times. Homogenates were diluted into a final volume of 200 mL, and centrifuged 15 min. with a Sorvall Centrifuge at 5° C., 10,000 rpm (12,000×G). The upper fat layer was removed and the supernatant decanted into fresh tubes. This step was repeated one more time before transferring the supernatant into ultracentrifuge tubes and centrifuged at 36,000 rpm (105,000×G) for an hour at 5° C. The resulting supernatant was discarded and the pellet was added to total of 15 mL 0.2 M KH2PO4. Pellets were homogenized gently by hand about 10 times. Samples were pooled and diluted into total of 60 mL buffer. The protein concentration of the homogenate was determined by the […] using a BCA (Bicinchoninic acid), kit from Pierce Chemical Company. 1 mL aliquots of microsomes were kept frozen in liquid nitrogen.
[3-^14C]-HMGCoA (57.0 mCi/mmol) was purchased from Amersham Biosciences, UK. […] Scintillation cocktail (Ultima-Flo-M) was added into each well and plates counted on a Trilux Microbeta Counter. The IC50 values were calculated with GraphPad software (Prism). […]

IC50 [3] [nM]	Compound	IC50 [1] [nM]	IC50 [2] [nM]
–	C[C@@H](NC(=O)c1nc(-c2ccc(F)cc2)n(CC[C@@H](O)C[C@@H](O)CC(=O)O)c1C1CC1)c1ccccc1 [Example 1, Sodium: (3R,5R)-7-[5-Cyclopropyl-2-(4-fluoro-phenyl)-4-((R)-1-Phenyl-ethylcarbamoyl)-imidazol-1-yl]-3,5-dihydroxy-heptanoate]	449	–
36.8	C[C@H](c1ccccc1)N(C)C(=O)c1nc(-c2ccc(F)cc2)n(CC[C@@H](O)C[C@@H](O)CC(=O)O)c1C1CC1 [Example 2, Sodium; (3R,5R)-7-{5-Cyclopropyl-2-(4-fluoro-phenyl)-4-[methyl-((R)-1-phenyl-ethyl)-carbamoyl]-imidazol-1-yl}-3,5-dihydroxy-heptanoate]	–	0.27
